Measurements from patent US20010044463A1, “Methods for controlling gram negative bacteria in mammals” (priority 1997, published 2001).
≈ marks a conversion by molar mass, not a printed value.

Key:
[1] = system: H. pylori (urease negative) (Wild strain of ATCC 43504); experiment: Minimum Inhibitory Concentration (MIC) blood agar plate growth inhibition; type: cell-based, Helicobacter pylori; conditions: Table III
Experimental: (§1) Monensin (Sigma Cat. No. M-5273) was dissolved in 100% absolute ethanol (AAPER Alcohol and Chemical Co.) at a concentration of 20 mg/ml. Subsequent dilutions were made in ethanol immediately prior to use. Nigericin (Sigma Cat. No. N-7143) was dissolved in DMSO at 2 mg/ml. Subsequent dilutions were made in BHI medium (Brain heart infusion broth, Difco #0037-07-0) immediately prior to use.
(§2) Blood agar base (BAB) was prepared containing 1.5% agar and autoclaved. 20 ml samples of autoclaved BAB were poured into 50 mL tubes and placed in a 56° C. water bath.
(§3) 100 μl of a drug (final concentration equivalent to 1:200 of original concentration) and 1.2 ml of sheep blood (Colorado Senun Company # CS-1112) (blood diluted in a 1:1 buffer providing a 3% concentration of blood per 20 ml medium sample) were added to 20 ml sample of media and mixed. The mixed media preparation was poured into a petri dished and allowed to solidify.
(§4) Prior to inoculation of petri plates, bacteria or cultures were examined for morphology under a phase microscope to confirm motility and physical characteristics, e.g., spiral shaped. The organisms were washed off the plate into PBS (Phosphate buffered saline) (80.0 g NaCl, 2.0 g KCl, 2.4 g KH2PO4 11.5 g Na2HPO4 or 24.4 g Na2HPO4/2H2O per 1 liter deionized water, pH 7.2, sterilized by autoclaving) and diluted into BHI at a concentration of 10^8/ml (O.D. of 0.3 units diluted 1:30). Ten microliters of solution containing 10^6 organisms were spread onto a petri plate and grown under microaerophilic conditions for 3 days unless specified. Control organisms were grown under microaerophilic conditions.
(§5) Inhibition of growth was determined by the amount of colonies present within the petri plate. The following factors were used for growth inhibition: ±=0-20 colonies, +=20-50 colonies, ++=50-200 colonies and +++=200+ colonies.

[2] = system: H. pylori (urease positive) ATCC Number 51652; experiment: as above; type: cell-based, Helicobacter pylori; conditions: Table VIII
Experimental: as §1, §2, §3, §4, §5

Staph ATCC 14775 = experiment: Blood agar plate growth inhibition, control organism; type: cell-based
Experimental: as §1, §2, §3
as §4, with “Control organisms were grown under microaerophilic conditions.” left out
as §5

H. pylori ATCC 43504 = experiment: Minimum Inhibitory Concentration (MIC) blood agar plate growth inhibition; type: cell-based, Helicobacter pylori
Experimental: Subsequent dilutions were made in ethanol immediately prior to use. […] Subsequent dilutions were made in BHI medium (Brain heart infusion broth, Difco #0037-07-0) immediately prior to use.
as §2
The mixed media preparation was poured into a petri dished and allowed to solidify.
as §4, §5

CC[C@@]1([C@@H]2O[C@@H]([C@H]3O[C@@](O)(CO)[C@H](C)C[C@@H]3C)C[C@@H]2C)CC[C@H]([C@]2(C)CC[C@]3(C[C@H](O)[C@@H](C)[C@@H]([C@@H](C)[C@@H](OC)[C@H](C)C(=O)O)O3)O2)O1 [Monensin, monensin]
growth (amount of colonies present within the petri plate) ([1]; final drug concentration 0.1 ng/ml): (+++) (+++=200+ colonies) | growth (amount of colonies present within the petri plate) ([1]; final drug concentration 1 ng/ml): (+++) (+++=200+ colonies) | growth (amount of colonies present within the petri plate) ([1]; final drug concentration 10 ng/ml): (+++) (+++=200+ colonies) | growth (amount of colonies present within the petri plate) ([1]; final drug concentration 100 ng/ml): (+++) (+++=200+ colonies) | growth (amount of colonies present within the petri plate) ([1]; final drug concentration 1 μg/ml): No growth | growth (amount of colonies present within the petri plate) ([1]; final drug concentration 10 μg/ml): No growth | growth (amount of colonies present within the petri plate) ([2]; final drug concentration 0.098 μg/ml): No growth | growth (amount of colonies present within the petri plate) ([2]; final drug concentration 0.195 μg/ml): No growth | growth (amount of colonies present within the petri plate) ([2]; final drug concentration 0.39 μg/ml): No growth | growth (amount of colonies present within the petri plate) ([2]; final drug concentration 0.78 μg/ml): No growth | growth (amount of colonies present within the petri plate) ([2]; final drug concentration 1.56 μg/ml): No growth | growth (amount of colonies present within the petri plate) ([2]; final drug concentration 3.125 μg/ml): No growth | growth (amount of colonies present within the petri plate) ([2]; final drug concentration 6.25 μg/ml): No growth | growth (amount of colonies present within the petri plate) ([2]; final drug concentration 12.5 μg/ml): No growth | growth (amount of colonies present within the petri plate) ([2]; final drug concentration 25 μg/ml): No growth | growth (amount of colonies present within the petri plate) ([2]; final drug concentration 50 μg/ml): No growth | growth (amount of colonies present within the petri plate) ([2]; final drug concentration 100 μg/ml): No growth | growth (amount of colonies present within the petri plate) (Staph ATCC 14775; Table XIV, Non-microaerophilic conditions, final drug concentration 0.1 ng/ml): (+++) (+++=200+ colonies) | growth (amount of colonies present within the petri plate) (Staph ATCC 14775; Table XIV, Non-microaerophilic conditions, final drug concentration 1 ng/ml): (+++) (+++=200+ colonies) | growth (amount of colonies present within the petri plate) (Staph ATCC 14775; Table XIV, Non-microaerophilic conditions, final drug concentration 10 ng/ml): (+++) (+++=200+ colonies) | growth (amount of colonies present within the petri plate) (Staph ATCC 14775; Table XIV, Non-microaerophilic conditions, final drug concentration 100 ng/ml): (+++) (+++=200+ colonies) | growth (amount of colonies present within the petri plate) (Staph ATCC 14775; Table XIV, Non-microaerophilic conditions, final drug concentration 1 μg/ml): (+++***) (+++=200+ colonies) | growth (amount of colonies present within the petri plate) (Staph ATCC 14775; Table XIV, Non-microaerophilic conditions, final drug concentration 10 μg/ml): No growth | growth (amount of colonies present within the petri plate) (Staph ATCC 14775; Table XVI, Non-aerophilic conditions, final drug concentration 0.098 μg/ml): (+++) (+++=200+ colonies) | growth (amount of colonies present within the petri plate) (Staph ATCC 14775; Table XVI, Non-aerophilic conditions, final drug concentration 0.195 μg/ml): (+++) (+++=200+ colonies) | growth (amount of colonies present within the petri plate) (Staph ATCC 14775; Table XVI, Non-aerophilic conditions, final drug concentration 0.39 μg/ml): (+++) (+++=200+ colonies) | growth (amount of colonies present within the petri plate) (Staph ATCC 14775; Table XVI, Non-aerophilic conditions, final drug concentration 0.78 μg/ml): (++) (++=50-200 colonies) | growth (amount of colonies present within the petri plate) (Staph ATCC 14775; Table XVI, Non-aerophilic conditions, final drug concentration 1.56 μg/ml): (+)^2 (+=20-50 colonies) | growth (amount of colonies present within the petri plate) (Staph ATCC 14775; Table XVI, Non-aerophilic conditions, final drug concentration 3.125 μg/ml): (+)^2 (+=20-50 colonies) | growth (amount of colonies present within the petri plate) (Staph ATCC 14775; Table XVI, Non-aerophilic conditions, final drug concentration 6.25 μg/ml): (+)^2 (+=20-50 colonies) | growth (amount of colonies present within the petri plate) (Staph ATCC 14775; Table XVI, Non-aerophilic conditions, final drug concentration 12.5 μg/ml): (±)^1 (±=0-20 colonies) | growth (amount of colonies present within the petri plate) (Staph ATCC 14775; Table XVI, Non-aerophilic conditions, final drug concentration 25 μg/ml): (±)^1 (±=0-20 colonies) | growth (amount of colonies present within the petri plate) (Staph ATCC 14775; Table XVI, Non-aerophilic conditions, final drug concentration 50 μg/ml): No growth | growth (amount of colonies present within the petri plate) (Staph ATCC 14775; Table XVI, Non-aerophilic conditions, final drug concentration 100 μg/ml): No growth | MIC (H. pylori ATCC 43504; Helicobacter pylori, ATCC43504): 0.39 µg/mL (≈ 0.581 µM) | growth (amount of colonies present within the petri plate) (H. pylori ATCC 43504; Table I, final drug concentration 0.1 ng/ml): (+++) (+++=200+ colonies) | growth (amount of colonies present within the petri plate) (H. pylori ATCC 43504; Table I, final drug concentration 1 ng/ml): (+) (+=20-50 colonies) | growth (amount of colonies present within the petri plate) (H. pylori ATCC 43504; Table I, final drug concentration 10 ng/ml): (+) (+=20-50 colonies) | growth (amount of colonies present within the petri plate) (H. pylori ATCC 43504; Table I, final drug concentration 100 ng/ml): No growth | growth (amount of colonies present within the petri plate) (H. pylori ATCC 43504; Table I, final drug concentration 1 μg/ml): No growth | growth (amount of colonies present within the petri plate) (H. pylori ATCC 43504; Table I, final drug concentration 10 μg/ml): No growth | growth (amount of colonies present within the petri plate) (H. pylori ATCC 43504; Table II, urease positive, final drug concentration 1 ng/ml): (+++) (+++=200+ colonies) | growth (amount of colonies present within the petri plate) (H. pylori ATCC 43504; Table II, urease positive, final drug concentration 100 ng/ml): (+++) (+++=200+ colonies) | growth (amount of colonies present within the petri plate) (H. pylori ATCC 43504; Table II, urease positive, final drug concentration 10 μg/ml): No growth | growth (amount of colonies present within the petri plate) (H. pylori ATCC 43504; Table II, urease positive, final drug concentration 0.1 nglml): (+++) (+++=200+ colonies) | growth (amount of colonies present within the petri plate) (H. pylori ATCC 43504; Table IV, urease positive, final drug concentration 0.1 ng/ml): (+++) (+++=200+ colonies) | growth (amount of colonies present within the petri plate) (H. pylori ATCC 43504; Table IV, urease positive, final drug concentration 1 ng/ml): (+++) (+++=200+ colonies) | growth (amount of colonies present within the petri plate) (H. pylori ATCC 43504; Table IV, urease positive, final drug concentration 10 ng/ml): (+++) (+++=200+ colonies) | growth (amount of colonies present within the petri plate) (H. pylori ATCC 43504; Table IV, urease positive, final drug concentration 100 ng/ml): (+++) (+++=200+ colonies) | growth (amount of colonies present within the petri plate) (H. pylori ATCC 43504; Table IV, urease positive, final drug concentration 1 μg/ml): No growth | growth (amount of colonies present within the petri plate) (H. pylori ATCC 43504; Table IV, urease positive, final drug concentration 10 μg/ml): No growth | growth (amount of colonies present within the petri plate) (H. pylori ATCC 43504; Table V, in the presence of 10 mM urea, final drug concentration 0.1 ng/ml, Nigericin assay done in duplicate): (+++) (+++=200+ colonies) | growth (amount of colonies present within the petri plate) (H. pylori ATCC 43504; Table V, in the presence of 10 mM urea, final drug concentration 1 ng/ml, Nigericin assay done in duplicate): (+++) (+++=200+ colonies) | growth (amount of colonies present within the petri plate) (H. pylori ATCC 43504; Table V, in the presence of 10 mM urea, final drug concentration 10 ng/ml, Nigericin assay done in duplicate): (+++) (+++=200+ colonies) | growth (amount of colonies present within the petri plate) (H. pylori ATCC 43504; Table V, in the presence of 10 mM urea, final drug concentration 100 ng/ml, Nigericin assay done in duplicate): (+++) (+++=200+ colonies) | growth (amount of colonies present within the petri plate) (H. pylori ATCC 43504; Table V, in the presence of 10 mM urea, final drug concentration 1 μg/ml, Nigericin assay done in duplicate): No growth | growth (amount of colonies present within the petri plate) (H. pylori ATCC 43504; Table V, in the presence of 10 mM urea, final drug concentration 10 μg/ml, Nigericin assay done in duplicate): No growth | growth (amount of colonies present within the petri plate) (H. pylori ATCC 43504; Table VI, in the presence of 2.5 mM urea, final drug concentration 1 ng/ml): (+++) (+++=200+ colonies) | growth (amount of colonies present within the petri plate) (H. pylori ATCC 43504; Table VI, in the presence of 2.5 mM urea, final drug concentration 10 ng/ml): (+++) (+++=200+ colonies) | growth (amount of colonies present within the petri plate) (H. pylori ATCC 43504; Table VI, in the presence of 2.5 mM urea, final drug concentration 1 μg/ml): No growth | growth (amount of colonies present within the petri plate) (H. pylori ATCC 43504; Tables IX-XIII, final drug concentration 0.098 μg/ml): (+++) (+++=200+ colonies) | growth (amount of colonies present within the petri plate) (H. pylori ATCC 43504; Tables IX-XIII, final drug concentration 0.195 μg/ml): (++) (++=50-200 colonies) | growth (amount of colonies present within the petri plate) (H. pylori ATCC 43504; Tables IX-XIII, final drug concentration 0.39 μg/ml): (±) (±=0-20 colonies) | growth (amount of colonies present within the petri plate) (H. pylori ATCC 43504; Tables IX-XIII, final drug concentration 0.78 μg/ml): No growth | growth (amount of colonies present within the petri plate) (H. pylori ATCC 43504; Tables IX-XIII, final drug concentration 6.25 μg/ml): No growth | growth (amount of colonies present within the petri plate) (H. pylori ATCC 43504; Tables IX-XIII, final drug concentration 12.5 μg/ml): No growth | growth (amount of colonies present within the petri plate) (H. pylori ATCC 43504; Tables IX-XIII, final drug concentration 25 μg/ml): No growth | growth (amount of colonies present within the petri plate) (H. pylori ATCC 43504; Tables IX-XIII, final drug concentration 50 μg/ml): No growth | growth (amount of colonies present within the petri plate) (H. pylori ATCC 43504; Tables IX-XIII, final drug concentration 100 μg/ml): No growth
